From PMC8079060 (Drug Delivery, 2021) come the findings set out here.

The Tmax is the time from dosing to the highest level. One may read the Cmax as the maximum level reached in the sampled fluid or tissue. Usually IC50 stands for the concentration at which inhibition is half-maximal. Read a high IC50 as lower potency.

Values joined by “and” are separate entries in the source; they are usually repeats but may differ in a detail not shown here. Equal values may be shown once.

A short description of series [1]: Plasma pharmacokinetics after intravenous administration. The note with it: rats; for Tmax: i.v. NPPA-PTX NPs 6.04 mg kg^−1 (equimolar with 5.00 mg kg^−1 PTX) or Taxol 5.00 mg kg^−1; for Tmax / AUCINF_obs / AUClast / Cmax: plasma. Here is the method:
Post injection, ∼200 μL blood samples were drawn from the jugular vein at predetermined time points of 0.033, 0.083, 0.25, 0.5, 1, 2, 4, 6, 8, 12, and 24 h post-injection and centrifuged immediately at 3000 rpm for 10 min at 4 °C. […] 200 μL of deionized water was added into the 40 μL supernatants followed by vortexing for 1 min. Finally, the pharmacokinetic data analysis was performed via a liquid chromatography-tandem mass spectrometry (LC-MS/MS Applied Biosystems. Foster City, CA, USA) and pharmacokinetic parameters were acquired by Winnolin 7.0 software.

Series [2] in a line: Tissue distribution in MDA-MB-231 tumor-bearing nude mice.
Method: Mice were sacrificed and the tumors and main organs were harvested at 1, 4, 8, and 24 h after administration. Each tissue sample was homogenized in 1 mL acetonitrile and centrifugated.
The subject of series [3] is HCT116 cells. Briefly: cells. The note with it: Homo sapiens, HCT-116. Here is the method: (§1) Dose-effect curves were constructed and IC50 values were calculated by GraphPad Prism6/SPSS Software.
The test system of series [4] is MDA-MB-231 cells. Briefly: cells. As to conditions: Homo sapiens. Here is the method:
as §1

[5] abbreviates: i.v. NPPA-PTX NPs 6.04 mg kg^−1 or Taxol 5.00 mg kg^−1, mean ± SEM, n = 3.

Consider `CC(=O)OC1C(=O)C2(C)C(O)CC3OCC3(OC(C)=O)C2C(OC(=O)c2ccccc2)C2(O)CC(OC(=O)C(OC(=O)CCc3ccccc3[N+](=O)[O-])C(NC(=O)c3ccccc3)c3ccccc3)C(C)=C1C2(C)C` (centres unmarked) [NPPA-PTX, 3-(2-nitrophenyl) propionic acid-paclitaxel], for which the Tmax in series [1] (mean ± SEM, n = 3) was determined as 2 ± 0 min. In series [1] (setting [5]), the Cl_obs was found to be 33.17 ± 16.4 mL/min/kg, the HL_Lambda_z is reported as 7.45 ± 0.915 h, the “MRTINF_obs (mean residence time)” value is 3.90 ± 0.656 h and the MRTlast stood at 2.91 ± 0.280 h. In series [1] (setting [5]), the “Vz_obs (apparent distribution volume)” value is 20,700 mL kg^−1 and 20,700 ± 9320 mL kg^−1; the AUCINF_obs is 3930 ± 2710 ng·h/mL; the AUClast was found to be 3810 ± 2640 ng·h/mL; the peak concentration (Cmax) came to 4580 ± 2140 ng/mL. The AUC tissue/plasma in series [2] (Heart) worked out at 0.65. This compound also had an AUC tissue/plasma in series [2] (Kidney) of 0.79. The AUC tissue/plasma in series [2] (Liver) turned out to be 3.17. In addition, the AUC tissue/plasma in series [2] (Lung) turned out to be 0.55. In series [2] (Spleen), this compound displayed an AUC tissue/plasma of 0.35. This compound registered an AUC tissue/plasma in series [2] (plasma) of 1.00. In addition, in series [2] (tumor), the AUC tissue/plasma amounted to 0.45.
For `CC(=O)OC1C(=O)C2(C)C(O)CC3OCC3(OC(C)=O)C2C(OC(=O)c2ccccc2)C2(O)CC(OC(=O)C(O)C(NC(=O)c3ccccc3)c3ccccc3)C(C)=C1C2(C)C` (centres unmarked) [PTX from Taxol], the Tmax in series [1] (mean ± SEM, n = 3) worked out at 2 ± 0 min. In addition, in series [1] (setting [5]), the Cl_obs stood at 19.5 ± 6.63 mL/min/kg; the HL_Lambda_z was determined as 5.86 ± 1.24 h; the MRTlast stood at 2.50 ± 0.545 h; the “Vz_obs (apparent distribution volume)” value is 10,300 mL kg^−1 and 10,300 ± 5480 mL kg^−1. In addition, in series [1] (setting [5]), the AUCINF_obs came to 4560 ± 1310 ng·h/mL, the AUClast was determined as 4480 ± 1310 ng·h/mL and the peak concentration (Cmax) was found to be 8600 ± 2500 ng/mL.
As for `CC(=O)OC1C(=O)C2(C)C(O)CC3OCC3(OC(C)=O)C2C(OC(=O)c2ccccc2)C2(O)CC(OC(=O)C(O)C(NC(=O)c3ccccc3)c3ccccc3)C(C)=C1C2(C)C` (centres unmarked) [PTX released from NPPA-PTX], the “MRT compared to that of PTX from Taxol” value in series [1] (i.v.) is listed as 4 fold. Moreover, in series [1] (mean ± SEM, n = 3), the Tmax was found to be 2 ± 0 min. Further, in series [1] (setting [5]), the Cl_obs was found to be 127.5 ± 34.17 mL/min/kg, the HL_Lambda_z turned out to be 9.53 ± 5.82 h, the MRTlast is listed as 7.38 ± 0.817 h and the “Vz_obs (apparent distribution volume)” value was 93,700 ± 26,400 mL kg^−1. In series [1] (setting [5]), the AUCINF_obs stood at 837 ± 264 ng·h/mL, the AUClast stood at 695 ± 99.6 ng·h/mL and the Cmax came to 99.0 ± 29.2 ng/mL. For the same compound, the “Vz_obs (apparent distribution volume)” value in series [1] (i.v. NPPA-PTX NPs 6.04 mg kg^−1 or Taxol 5.00 mg kg^−1, mean ± SEM, n = 3, listed as released PTX from NPPA-PTX) is given as 93,700 mL kg^−1. The “AUC0–24h in plasma compared with PTX from Taxol” value in series [2] (plasma) is listed as “lower values (about three tenths)”. Further, in series [2] (tumor), the “AUC0–24h in tumor compared with PTX from Taxol” value is listed as “equivalent values”.
With `CC(=O)O[C@H]1C(=O)[C@@]2(C)[C@H]([C@H](OC(=O)c3ccccc3)[C@]3(O)C[C@H](OC(=O)[C@H](O)[C@@H](NC(=O)c4ccccc4)c4ccccc4)C(C)=C1C3(C)C)[C@]1(OC(C)=O)CO[C@@H]1C[C@@H]2O` [PTX, paclitaxel], the half-maximal inhibitory concentration (IC50) was 300 ± 20 nM in series [3] and 63 ± 3.3 nM in series [4].
